# Measured values as given in PubChem BioAssay AID248 (DTP/NCI, 2004).
# Inconclusive results and toxic doses are left out.
# System: L1210 leukemia ip in BDF1 mice, survival T/C
# Test: NCI In Vivo Anticancer Drug Screen. Data for tumor model L1210 Leukemia (intraperitoneal) in B6D2F1 (BDF1) mice
# Details: endpoint: mean survival time, higher = longer survival
# Procedure, shortened: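 Survival endpoint. Drug-treated group vs vehicle group, expressed as T divided by C. Tumor passaged by transplantation.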
smiles,measurement,setting,value
CN(C)N=Nc1ccc2[nH]ncc2c1,T/C,"dose: 14.5 mg/kg/injection, schedule: Q01DX009 (ip), vehicle: Klucel (hydroxypropylcellulose) (HPC)",123 % of control
same,T/C,"dose: 16.5 mg/kg/injection, schedule: Q04DX003 (ip), vehicle: Klucel (hydroxypropylcellulose) (HPC)",100 % of control
same,T/C,"dose: 25.0 mg/kg/injection, schedule: Q01DX009 (ip), vehicle: Klucel (hydroxypropylcellulose) (HPC)",114 % of control
same,T/C,"dose: 25.0 mg/kg/injection, schedule: Q04DX003 (ip), vehicle: Klucel (hydroxypropylcellulose) (HPC)",107 % of control
same,T/C,"dose: 33.0 mg/kg/injection, schedule: Q01DX009 (ip), vehicle: Klucel (hydroxypropylcellulose) (HPC)",152 % of control
same,T/C,"dose: 37.5 mg/kg/injection, schedule: Q04DX003 (ip), vehicle: Klucel (hydroxypropylcellulose) (HPC)",117 % of control
same,T/C,"dose: 50.0 mg/kg/injection, schedule: Q01DX009 (ip), vehicle: Klucel (hydroxypropylcellulose) (HPC)",119 % of control
same,T/C,"dose: 100.0 mg/kg/injection, schedule: Q01DX001 (ip), vehicle: Klucel (hydroxypropylcellulose) (HPC)",111 % of control
O=P(Cc1ccccc1)(Oc1ccccc1)Oc1ccccc1,T/C,"dose: 100.0 mg/kg/injection, schedule: Q01DX009 (ip), vehicle: Klucel (hydroxypropylcellulose) (HPC)",91 % of control
same,T/C,"dose: 200.0 mg/kg/injection, schedule: Q01DX009 (ip), vehicle: Klucel (hydroxypropylcellulose) (HPC)",94 % of control
same,T/C,"dose: 400.0 mg/kg/injection, schedule: Q01DX009 (ip), vehicle: Klucel (hydroxypropylcellulose) (HPC)",91 % of control
C/C=C(\C)C(=O)Nc1ccc(Cl)c(Cl)c1,T/C,"dose: 222.0 mg/kg/injection, schedule: Q01DX Z (ip), vehicle: methylcellulose (MC)",93 % of control
same,T/C,"dose: 333.0 mg/kg/injection, schedule: Q01DX Z (ip), vehicle: methylcellulose (MC)",90 % of control
same,T/C,"dose: 500.0 mg/kg/injection, schedule: Q01DX Z (ip), vehicle: methylcellulose (MC)",98 % of control
O=C1CSC(=S)N1c1ccc(Cl)c(Cl)c1,T/C,"dose: 50.0 mg/kg/injection, schedule: Q04DX003 (ip), vehicle: saline with Tween-80",96 % of control
same,T/C,"dose: 100.0 mg/kg/injection, schedule: Q04DX003 (ip), vehicle: saline with Tween-80",101 % of control
same,T/C,"dose: 200.0 mg/kg/injection, schedule: Q04DX003 (ip), vehicle: saline with Tween-80",104 % of control
CNC(CNC(CO)CC(C)C)Cc1ccc(OCc2ccccc2)cc1 (stereo not drawn),T/C,"dose: 12.5 mg/kg/injection, schedule: Q01DX009 (ip), vehicle: saline",102 % of control
same,T/C,"dose: 25.0 mg/kg/injection, schedule: Q01DX009 (ip), vehicle: saline",91 % of control
same,T/C,"dose: 25.0 mg/kg/injection, schedule: Q04DX003 (ip), vehicle: saline",95 % of control
same,T/C,"dose: 50.0 mg/kg/injection, schedule: Q01DX009 (ip), vehicle: saline",94 % of control
same,T/C,"dose: 50.0 mg/kg/injection, schedule: Q04DX003 (ip), vehicle: saline",95 % of control
same,T/C,"dose: 100.0 mg/kg/injection, schedule: Q04DX003 (ip), vehicle: saline",95 % of control
CC(=O)c1ccc(N2CCNCC2)cc1,T/C,"dose: 10.0 mg/kg/injection, schedule: Q01DX001 (ip), vehicle: carboxymethylcellulose (CMC)",115 % of control
same,T/C,"dose: 20.0 mg/kg/injection, schedule: Q01DX001 (ip), vehicle: carboxymethylcellulose (CMC)",107 % of control
same,T/C,"dose: 40.0 mg/kg/injection, schedule: Q01DX001 (ip), vehicle: carboxymethylcellulose (CMC)",109 % of control
O=C(OC(c1ccccc1)c1ccccc1)c1ccc([N+](=O)[O-])cc1,T/C,"dose: 100.0 mg/kg/injection, schedule: Q01DX001 (ip), vehicle: carboxymethylcellulose (CMC)",98 % of control
same,T/C,"dose: 200.0 mg/kg/injection, schedule: Q01DX001 (ip), vehicle: carboxymethylcellulose (CMC)",104 % of control
same,T/C,"dose: 400.0 mg/kg/injection, schedule: Q01DX001 (ip), vehicle: carboxymethylcellulose (CMC)",96 % of control
COc1ccc(OC)c(/C=C(/C)[N+](=O)[O-])c1,T/C,"dose: 50.0 mg/kg/injection, schedule: Q01DX009 (ip), vehicle: saline with Tween-80",109 % of control
same,T/C,"dose: 100.0 mg/kg/injection, schedule: Q01DX009 (ip), vehicle: saline with Tween-80",109 % of control
same,T/C,"dose: 100.0 mg/kg/injection, schedule: Q04DX003 (ip), vehicle: Klucel (hydroxypropylcellulose) (HPC)",97 % of control
same,T/C,"dose: 200.0 mg/kg/injection, schedule: Q01DX009 (ip), vehicle: saline with Tween-80",109 % of control
same,T/C,"dose: 200.0 mg/kg/injection, schedule: Q04DX003 (ip), vehicle: Klucel (hydroxypropylcellulose) (HPC)",108 % of control
OC1OC(COCc2ccccc2)C(OCc2ccccc2)C1OCc1ccccc1 (stereo not drawn),T/C,"dose: 100.0 mg/kg/injection, schedule: Q01DX001 (ip), vehicle: saline with Tween-80",95 % of control
same,T/C,"dose: 200.0 mg/kg/injection, schedule: Q01DX001 (ip), vehicle: saline with Tween-80",95 % of control
O=C(O)c1cc([N+](=O)[O-])ccc1F,T/C,"dose: 75.0 mg/kg/injection, schedule: Q01DX001 (ip), vehicle: acetone",95 % of control
same,T/C,"dose: 150.0 mg/kg/injection, schedule: Q01DX001 (ip), vehicle: acetone",103 % of control
